Patent US20030022889A1, “Method for providing neuro-protective effects” (priority 1997, published 2003)

Columns and labels:
[1] = system: ischemia-induced neuronal cell damage (CA1 pyramidal cell layer of the hippocampus); assay: Cerebral Ischemia Model in Rats; format: in vivo, Male Wistar rats; conditions: "such experiments"; the sentence does not name a specific test
Description: Cerebral ischemia is produced in rats by occluding the four arteries that supply blood to the brain according to the following procedure. Male Wistar rats are anesthetized with Metofane and placed into a stereotaxic instrument. A longitudinal incision is made on the dorsal surface of the neck. The neck muscles are reflected to expose the dorsal surface of the spinal column. The two vertebral arteries are exposed where they pass through the first cervical vertebra. Both arteries are permanently occluded by the application of electrocautery. After coagulation of the vertebral arteries, the rat is removed from the stereotaxic instrument and the surgical wound is sutured. Two longitudinal incisions are then made on the ventral surface of the neck. The two common carotid arteries are exposed and dissected free from surrounding nerves and connective tissue. An atraumatic clasp, fabricated mainly from silicone rubber tubing, is placed around each carotid artery in a manner such that the vessel is not traumatized or occluded. An indwelling jugular cannula is implanted into each rat for drug delivery. The surgical wounds are then closed. […]
Damage in 4 sections of the dorsal hippocampus from each brain is assessed in order to obtain an accurate estimate of damage. An average damage score is calculated for each treatment group. […] The level of significance is determined using the Mann Whitney-U-test.

[2] = system: muscarinic cholinergic receptor; assay: pharmacological studies, muscarinic cholinergic receptor activity
5-HT1C receptor = molecular target: T1, 5-HT1C receptor (Homo sapiens, UniProt P28335); assay: pharmacological studies, 5-HT1C receptor activity
T1 sequence (P28335 33-458): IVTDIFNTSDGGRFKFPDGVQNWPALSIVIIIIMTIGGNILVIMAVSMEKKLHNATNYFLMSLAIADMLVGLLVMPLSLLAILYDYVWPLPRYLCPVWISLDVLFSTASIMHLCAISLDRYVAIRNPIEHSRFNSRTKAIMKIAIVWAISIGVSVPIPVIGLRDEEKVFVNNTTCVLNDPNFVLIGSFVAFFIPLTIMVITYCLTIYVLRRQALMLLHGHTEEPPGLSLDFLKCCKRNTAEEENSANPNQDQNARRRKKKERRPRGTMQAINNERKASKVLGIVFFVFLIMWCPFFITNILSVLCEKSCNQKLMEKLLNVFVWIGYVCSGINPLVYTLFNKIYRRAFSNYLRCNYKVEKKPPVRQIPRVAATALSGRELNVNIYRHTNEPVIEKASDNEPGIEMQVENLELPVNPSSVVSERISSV

[3] = system: formation of lipid peroxides; assay: Lipid Peroxidation Test; conditions: test protocol of Aruoma, et al. (1990)

Cc1cc2c(s1)Nc1ccccc1N=C2N1CCN(C)CC1 [olanzapine, 2-methyl-4-(4-methyl-1-piperazinyl)-10H-thieno[2,3-b] [1,5] benzodiazepine]
neuro-protective effect [1]: significant neuro-protective effect | muscarinic cholinergic receptor activity [2]: has muscarinic cholinergic receptor activity | activity at the 5-HT1C receptor (5-HT1C receptor): active | inhibition of the formation of lipid peroxides [3]: inhibit the formation of lipid peroxides
